The target in the assay is T1, human orexin type 2 receptor (Homo sapiens, UniProt O43614).
T1 construct: expressed in transfected cells
T1 sequence (O43614 1-444): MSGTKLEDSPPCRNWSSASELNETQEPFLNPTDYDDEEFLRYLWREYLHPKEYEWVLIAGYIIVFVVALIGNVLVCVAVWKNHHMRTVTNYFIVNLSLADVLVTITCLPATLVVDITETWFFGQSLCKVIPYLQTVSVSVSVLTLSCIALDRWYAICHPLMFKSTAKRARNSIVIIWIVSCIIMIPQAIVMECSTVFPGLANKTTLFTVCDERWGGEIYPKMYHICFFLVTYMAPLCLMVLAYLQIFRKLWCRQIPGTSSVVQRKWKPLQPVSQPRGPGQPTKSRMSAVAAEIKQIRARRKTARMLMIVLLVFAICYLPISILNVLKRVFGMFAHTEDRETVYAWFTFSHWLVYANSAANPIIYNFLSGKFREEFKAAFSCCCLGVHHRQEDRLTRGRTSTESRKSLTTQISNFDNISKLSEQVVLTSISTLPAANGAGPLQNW
Kind of assay: Measurement of orexin type 2 receptor agonist activity (calcium fluorescence, Fluo-4 AM, FDSS). The assay is classed as cell-based. The conditions noted are these: test compound 3 μM; CHO cells expressing human OX2 receptor; DMSO = 0%, orexin A (human) = 100%. A digest of the protocol:
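CHO-K1 cells stably expressing human OX2R were loaded with Fluo-4 AM (30 min 37 °C, 30 min RT) in HEPES-buffered HBSS with 0.1% BSA and probenecid. Calcium fluorescence was followed on FDSS for 2 min after compound addition; activity normalised to DMSO (0%) and 10 nM orexin A (100%).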

`CS(=O)(=O)NC[C@H]1[C@H](CF)CN1C(=O)[C@@H]1C[C@@]1(F)c1ccccc1-c1c(F)cccc1F` [Example 400, N-{[(2R,3R)-1-[(1S,2S)-2-(2′,6′-difluoro[1,1′-biphenyl]-2-yl)-2-fluorocyclopropane-1-carbonyl]-3-(fluoromethyl)azetidin-2-yl]methyl}methanesulfonamide]: the “OX2R agonist activity (3 μM, %)” value was 99%.

As for `CC(NS(C)(=O)=O)[C@@H]1[C@H](C)CN1C(=O)[C@@H]1C[C@@]1(F)c1ccccc1-c1c(F)cccc1F` (stereo partly drawn) [Example 401, N-[(1R)-1-{(2S,3R)-1-[(1S,2S)-2-(2′,6′-difluoro[1,1′-biphenyl]-2-yl)-2-fluorocyclopropane-1-carbonyl]-3-methylazetidin-2-yl}ethyl]methanesulfonamide, or N-[(1S)-1-{(2S,3R)-1-[(1S,2S)-2-(2′,6′-difluoro[1,1′-biphenyl]-2-yl)-2-fluorocyclopropane-1-carbonyl]-3-methylazetidin-2-yl}ethyl]methanesulfonamide], the “OX2R agonist activity (3 μM, %)” value was determined as 79%.

For the compound `CS(=O)(=O)NC[C@@H]1CCN1C(=O)[C@@H]1C[C@H]1c1ccccc1-c1c(F)cc(F)cc1F` [Example 403, N-({(2S)-1-[(1R,2R)-2-(2′,4′,6′-trifluoro[1,1′-biphenyl]-2-yl)cyclopropane-1-carbonyl]azetidin-2-yl}methyl)methanesulfonamide], the “OX2R agonist activity (3 μM, %)” value is on record as 83%.

In the case of `CS(=O)(=O)NC[C@H]1[C@H](C(F)F)CN1C(=O)[C@@H]1C[C@@]1(F)c1ccccc1-c1c(F)cccc1F` [Example 405, N-{[(2R,3R)-1-[(1S,2S)-2-(2′,6′-difluoro[1,1′-biphenyl]-2-yl)-2-fluorocyclopropane-1-carbonyl]-3-(difluoromethyl)azetidin-2-yl]methyl}methanesulfonamide], the “OX2R agonist activity (3 μM, %)” value is reported as 96%.

Take `CC(=O)[C@@H]1CN(C(=O)[C@@H]2C[C@@]2(F)c2ccccc2-c2c(F)cccc2F)[C@H]1CNS(C)(=O)=O` [Example 406, N-({(2R,3R)-3-acetyl-1-[(1S,2S)-2-(2′,6′-difluoro[1,1′-biphenyl]-2-yl)-2-fluorocyclopropane-1-carbonyl]azetidin-2-yl}methyl)methanesulfonamide]: the “OX2R agonist activity (3 μM, %)” value stood at 50%.

As for `CS(=O)(=O)NC[C@@H]1CCN1C(=O)[C@@H]1C[C@H]1c1ccccc1-c1c(F)ccc(F)c1F` [Example 408, N-({(2S)-1-[(1R,2R)-2-(2′,3′,6′-trifluoro[1,1′-biphenyl]-2-yl)cyclopropane-1-carbonyl]azetidin-2-yl}methyl)methanesulfonamide], the “OX2R agonist activity (3 μM, %)” value stood at 73%.

With `CS(=O)(=O)NCC1N(C(=O)[C@@H]2C[C@@]2(F)c2ccccc2-c2c(F)cccc2F)CC1(F)F` (stereo partly drawn) [Example 409, N-({(2R)-1-[(1S,2S)-2-(2′,6′-difluoro[1,1′-biphenyl]-2-yl)-2-fluorocyclopropane-1-carbonyl]-3,3-difluoroazetidin-2-yl}methyl)methanesulfonamide, or N-({(2S)-1-[(1S,2S)-2-(2′,6′-difluoro[1,1′-biphenyl]-2-yl)-2-fluorocyclopropane-1-carbonyl]-3,3-difluoroazetidin-2-yl}methyl)methanesulfonamide], the “OX2R agonist activity (3 μM, %)” value is listed as 100%.

For `CCS(=O)(=O)NC[C@@H]1[C@H](F)CN1C(=O)[C@@H]1C[C@@]1(F)c1ccc(C)cc1-c1c(F)cccc1F` [Example 410, N-({(2R,3R)-1-[(1S,2S)-2-(2′,6′-difluoro-5-methyl[1,1′-biphenyl]-2-yl)-2-fluorocyclopropane-1-carbonyl]-3-fluoroazetidin-2-yl}methyl)ethanesulfonamide], the “OX2R agonist activity (3 μM, %)” value was determined as 103%.

As to `CS(=O)(=O)NC[C@@H]1[C@H](F)CN1C(=O)[C@@H]1C[C@@]1(F)c1ccc(F)cc1-c1c(F)cccc1F` [Example 413, N-({(2R,3R)-3-fluoro-1-[(1S,2S)-2-fluoro-2-(2′,5,6′-trifluoro[1,1′-biphenyl]-2-yl)cyclopropane-1-carbonyl]azetidin-2-yl}methyl)methanesulfonamide], the “OX2R agonist activity (3 μM, %)” value is 109%.

With `CCS(=O)(=O)NC[C@@H]1[C@@H](F)CN1C(=O)[C@@H]1C[C@@]1(F)c1ccccc1-c1c(F)cccc1F` [Example 414, N-({(2R,3S)-1-[(1S,2S)-2-(2′,6′-difluoro[1,1′-biphenyl]-2-yl)-2-fluorocyclopropane-1-carbonyl]-3-fluoroazetidin-2-yl}methyl)ethanesulfonamide], the “OX2R agonist activity (3 μM, %)” value was found to be 101%.

For the compound `CC(NS(C)(=O)=O)[C@@H]1[C@H](F)CN1C(=O)[C@@H]1C[C@@]1(F)c1ccccc1-c1c(F)cccc1F` (stereo partly drawn) [Example 415, N-[(1R)-1-{(2R,3R)-1-[(1S,2S)-2-(2′,6′-difluoro[1,1′-biphenyl]-2-yl)-2-fluorocyclopropane-1-carbonyl]-3-fluoroazetidin-2-yl}ethyl]methanesulfonamide, or N-[(1S)-1-{(2R,3R)-1-[(1S,2S)-2-(2′,6′-difluoro[1,1′-biphenyl]-2-yl)-2-fluorocyclopropane-1-carbonyl]-3-fluoroazetidin-2-yl}ethyl]methanesulfonamide], the “OX2R agonist activity (3 μM, %)” value was determined as 96%.

As for `CCS(=O)(=O)NC(C)[C@@H]1[C@H](F)CN1C(=O)[C@@H]1C[C@@]1(F)c1ccccc1-c1c(F)cccc1F` (stereo partly drawn) [Example 416, N-[(1R)-1-{(2R,3R)-1-[(1S,2S)-2-(2′,6′-difluoro[1,1′-biphenyl]-2-yl)-2-fluorocyclopropane-1-carbonyl]-3-fluoroazetidin-2-yl}ethyl]ethanesulfonamide, or N-[(1S)-1-{(2R,3R)-1-[(1S,2S)-2-(2′,6′-difluoro[1,1′-biphenyl]-2-yl)-2-fluorocyclopropane-1-carbonyl]-3-fluoroazetidin-2-yl}ethyl]ethanesulfonamide], the “OX2R agonist activity (3 μM, %)” value is 97%.

For the compound `CCS(=O)(=O)NC[C@H]1[C@H](F)CN1C(=O)[C@@H]1C[C@@]1(F)c1ccccc1-c1c(F)cccc1F` [Example 417, N-({(2S,3R)-1-[(1S,2S)-2-(2′,6′-difluoro[1,1′-biphenyl]-2-yl)-2-fluorocyclopropane-1-carbonyl]-3-fluoroazetidin-2-yl}methyl)ethanesulfonamide], the “OX2R agonist activity (3 μM, %)” value is recorded as 98%.

Regarding `CS(=O)(=O)NC([C@@H]1CCN1C(=O)[C@@H]1C[C@@]1(F)c1ccccc1-c1c(F)cccc1F)C1(O)CC1` (stereo partly drawn) [Example 418, N-[(R)-{(2S)-1-[(1S,2S)-2-(2′,6′-difluoro[1,1′-biphenyl]-2-yl)-2-fluorocyclopropane-1-carbonyl]azetidin-2-yl}(1-hydroxycyclopropyl)methyl]methane-sulfonamide, or N-[(S)-{(2S)-1-[(1S,2S)-2-(2′,6′-difluoro[1,1′-biphenyl]-2-yl)-2-fluorocyclopropane-1-carbonyl]azetidin-2-yl}(1-hydroxycyclopropyl)methyl]methanesulfonamide], the “OX2R agonist activity (3 μM, %)” value worked out at 99%.

On to `COC[C@H](NS(C)(=O)=O)C1CCN1C(=O)[C@@H]1C[C@@]1(F)c1ccccc1-c1c(F)cccc1F` (stereo partly drawn) [Example 419, N-[(1R)-1-{(2R)-1-[(1S,2S)-2-(2′,6′-difluoro[1,1′-biphenyl]-2-yl)-2-fluorocyclopropane-1-carbonyl]azetidin-2-yl}-2-methoxyethyl]methanesulfonamide, or N-[(1R)-1-{(2S)-1-[(1S,2S)-2-(2′,6′-difluoro[1,1′-biphenyl]-2-yl)-2-fluorocyclopropane-1-carbonyl]azetidin-2-yl}-2-methoxyethyl]methanesulfonamide], for which the “OX2R agonist activity (3 μM, %)” value is 104%.

Regarding `CN(C)S(=O)(=O)NC[C@@H]1[C@H](F)CN1C(=O)[C@@H]1C[C@@]1(F)c1ccc(F)cc1-c1c(F)cccc1F` [Example 424, N′-({(2R,3R)-3-fluoro-1-[(1S,2S)-2-fluoro-2-(2′,5,6′-trifluoro[1,1′-biphenyl]-2-yl)cyclopropane-1-carbonyl]azetidin-2-yl}methyl)-N,N-dimethylsulfuric diamide], the “OX2R agonist activity (3 μM, %)” value was 98%.

With `CC(C)NS(=O)(=O)NC[C@@H]1[C@H](F)CN1C(=O)[C@@H]1C[C@@]1(F)c1ccc(F)cc1-c1c(F)cccc1F` [Example 425, N-({(2R,3R)-3-fluoro-1-[(1S,2S)-2-fluoro-2-(2′,5,6′-trifluoro[1,1′-biphenyl]-2-yl)cyclopropane-1-carbonyl]azetidin-2-yl}methyl)-N′-propan-2-ylsulfuric diamide], the “OX2R agonist activity (3 μM, %)” value is recorded as 72%.

Consider `CCS(=O)(=O)NC[C@H]1[C@@H](F)CN1C(=O)[C@@H]1C[C@@]1(F)c1ccccc1-c1c(F)cccc1F` [Example 426, N-({(2S,3S)-1-[(1S,2S)-2-(2′,6′-difluoro[1,1′-biphenyl]-2-yl)-2-fluorocyclopropane-1-carbonyl]-3-fluoroazetidin-2-yl}methyl)ethanesulfonamide], for which the “OX2R agonist activity (3 μM, %)” value is 104%.

On to `CCNS(=O)(=O)NC[C@@H]1[C@H](F)CN1C(=O)[C@@H]1C[C@@]1(F)c1ccc(F)cc1-c1c(F)cccc1F` [Example 427, N-ethyl-N′-({(2R,3R)-3-fluoro-1-[(1S,2S)-2-fluoro-2-(2′,5,6′-trifluoro[1,1′-biphenyl]-2-yl)cyclopropane-1-carbonyl]azetidin-2-yl}methyl)sulfuric diamide], for which the “OX2R agonist activity (3 μM, %)” value is reported as 96%.

The record behind these values is US20250250230A1, “HETEROCYCLIC COMPOUND” (TAKEDA PHARMACEUTICAL COMPANY LIMITED, priority 2022, published 2025).
